Experimental data published in the NIST ThermoML archive (doi:10.1016/j.jct.2012.01.023).

What was measured:
[1] = xn = mol fraction of the nth substance listed; settings: 298.15 K, Drop volume
[2] = for mass density: 298.1 K, 101.33 kPa, Liquid, Vibrating tube method; for surface tension liquid-gas: 298.15 K, Drop volume

CCO [ethanol] + CCOS(=O)(=O)[O-].CCn1cc[n+](C)c1
Settings	surface tension liquid-gas [mN/m]
[1], x2 = 0	22.01

CCCCOS(=O)(=O)[O-].CC[n+]1ccn(C)c1 [3-ethyl-1-methylimidazolium butyl sulfate]
[2]
Settings	mass density [kg/m3]	surface tension liquid-gas [mN/m]
–	1175.65	39.64

CCCCCCCCOS(=O)(=O)[O-].CCn1cc[n+](C)c1 [1-ethyl-3-methylimidazolium octyl sulfate] + CCO
[1]
Settings	surface tension liquid-gas [mN/m]
x1 = 0.0399	22.89
x1 = 0.0712	23.71
x1 = 0.098	24.48
x1 = 0.1595	25.82
x1 = 0.215	26.62
x1 = 0.2445	27.01
x1 = 0.2985	27.64
x1 = 0.3506	28.18
x1 = 0.4002	28.61
x1 = 0.4582	28.92
x1 = 0.5059	29.14
x1 = 0.6269	29.6
x1 = 0.7387	29.96
x1 = 0.8317	30.5
x1 = 0.9164	30.8
x1 = 0.9432	30.79
x1 = 0.953	30.82
x1 = 1	30.91

O [water] + CCOS(=O)(=O)[O-].CCn1cc[n+](C)c1
Settings	surface tension liquid-gas [mN/m]
[1], x2 = 0	71.35

CCOS(=O)(=O)[O-].CCn1cc[n+](C)c1 [1-ethyl-3-methylimidazolium ethyl sulfate] + O
[1]
Settings	surface tension liquid-gas [mN/m]
x1 = 0.005	67.23
x1 = 0.0199	62.42
x1 = 0.0402	59.68
x1 = 0.06	57.64
x1 = 0.1006	55.64
x1 = 0.202	52.23
x1 = 0.3017	50.45
x1 = 0.4046	49.42
x1 = 0.5026	48.79
x1 = 0.6066	48.3
x1 = 0.6957	47.94
x1 = 0.7939	47.72
x1 = 0.9041	47.39
x1 = 1	47.16

CCCCCCOS(=O)(=O)[O-].CC[n+]1ccn(C)c1 [3-ethyl-1-methyl-1H-imidazolium hexyl sulfate]
[2]
Settings	mass density [kg/m3]	surface tension liquid-gas [mN/m]
–	1129.6	34.77

CCO [ethanol]
Settings	surface tension liquid-gas [mN/m]
[2]	22.01

CCCCCCOS(=O)(=O)[O-].CC[n+]1ccn(C)c1 [3-ethyl-1-methyl-1H-imidazolium hexyl sulfate] + CCO
[1]
Settings	surface tension liquid-gas [mN/m]
x1 = 0.03	22.98
x1 = 0.0679	23.87
x1 = 0.0977	24.48
x1 = 0.1253	25
x1 = 0.2267	26.53
x1 = 0.3138	27.69
x1 = 0.386	28.6
x1 = 0.4691	29.48
x1 = 0.5946	30.86
x1 = 0.7189	32.08
x1 = 0.7951	32.84
x1 = 0.9409	34.31
x1 = 1	34.77

CCCCOS(=O)(=O)[O-].CC[n+]1ccn(C)c1 [3-ethyl-1-methylimidazolium butyl sulfate] + CCO
[1]
Settings	surface tension liquid-gas [mN/m]
x1 = 0.066	23.6
x1 = 0.1347	25.01
x1 = 0.1536	25.36
x1 = 0.2904	27.76
x1 = 0.4691	30.63
x1 = 0.4993	31.05
x1 = 0.6866	33.99
x1 = 0.7916	35.75
x1 = 0.8794	37.35
x1 = 1	39.62

CCCCCCCCOS(=O)(=O)[O-].CCn1cc[n+](C)c1 [1-ethyl-3-methylimidazolium octyl sulfate]
[2]
Settings	mass density [kg/m3]	surface tension liquid-gas [mN/m]
–	1093.75	31.29
